Source: patent US12083119B2, “Methods and compositions for treating viral or virally-induced conditions” (VIRACTA SUBSIDIARY, INC., priority 2010, dated 2024)

Key:
P3HR1 cells [1] = assay type: cell-based, human; conditions: for effective concentration: in the presence of GCV
Description: (§1) The induction of lytic phase was assayed in EBV-positive lymphoma cell lines exposed to different HDAC inhibitors (HDACi) for 24-48 hrs, then the expression of EBV TK and other EBV transcripts by RT-PCR analysis was quantified. To determine tumor cytotoxic activity of the combination of HDACi and GCV, EBV+ lymphoma cells were exposed to a range of concentrations of HDAC inhibitors and ganciclovir (GCV) for 3 days and then to GCV alone for another 3 days. Efficacy of a particular HDAC inhibitor in the combination treatment approach was then determined by enumerating living cells. A general experimental protocol is described below.
(§2) The EBV-positive B lymphoma cell line P3HR1 was used in the study. The P3HR1 cell line was originally derived from Burkitt's lymphoma patient. EBV maintains a latent state of replication in this cell line. These cells were maintained in RPMI 1640 with 10% fetal bovine serum containing 100 U penicillin per ml and 100 μg streptomycin per ml.
To test the sensitivity of EBV-positive lymphoma cells towards HDAC inhibitors, P3HR1 cells were treated with HDAC inhibitors in the presence of one anti-viral drug. At the end of the assay, the efficacy of the HDAC inhibitors was assessed by measuring the inhibition of cell growth compared to untreated cells.
(§3) Healthy, actively-growing P3HR1 cells were harvested and resuspended in fresh growth media. Cells were seeded in wells. Appropriate dilutions of HDAC inhibitors were added to certain wells, some of which received an anti-viral drug (such as GCV at 50 μM concentration). At 72 hrs, 800 μl of culture fluid was removed from each well. Wells were then refed with 1.0 ml fresh growth media without HDAC inhibitors. Fresh GCV solution was added to the wells that originally received GCV at the same initial concentration. On day 6, cell morphology was observed under microscope and viable cell counts in each individual wells were determined by trypan blue dye exclusion method using an automated cell counter (Countess, Invitrogen).

EBV TK = assay: Thymidine kinase expression assay (RT and real-time PCR of TK mRNA); assay type: cell-based, Epstein-Barr virus; design: TK expression: dose or concentration left out as unconfirmed
Description: To measure the relative level of TK mRNA in various total RNA preparations, reverse transcription and quantitative PCR using real time PCR technology was used. Five micrograms of total RNA was reverse-transcribed using random hexamer primers and Superscript III cDNA synthesis kit (Invitrogen). The cDNA was diluted to a final volume of 60 μl with sterile water, 8 μl of which was then used in each real time PCR reaction in an ABI 7500 Sequencher using SYBR-Green technology. Primers used for the amplification of TK were EBV-TK1-F: 5′-[…]-3′ (SEQ ID NO: 1); EBV-TK1-R: 5′-[…]-3′ (SEQ ID NO: 2). The β-actin mRNA levels in those samples were determined similarly using β-actin-specific primers Actin/hu-F: 5′-[…]-3′ (SEQ ID NO: 3); Actin/hu-R: 5′-[…]-3′ (SEQ ID NO: 4). The relative level of TK expression in a sample was calculated following normalization of β-actin expression level.
as §1
P3HR1 cells were seeded in 60 mm plates containing 3×10^6 cells in 3 ml of fresh growth media. Appropriate concentrations of HDAC inhibitors were added to the plate and cells were incubated in the presence of HDAC inhibitors for 6 h, 24 h, 48 h, or as needed. Cells were harvested by centrifugation and washed once in cold PBS. Total cellular RNA was then extracted. To measure the relative level of TK mRNA in various total RNA preparations, reverse transcription and quantitative PCR using real time PCR analysis were used. See, Ghosh, S. K., Forman, L. W., Akinsheye, I., Perrine, S. P., Faller, D. V.: Short discontinuous sodium butyrate exposure efficiently sensitizes latently EBV infected cells towards nucleoside analogue-mediated growth inhibition, Blood Cells Mol. Diseases (2007), 38:57-65. The relative level of TK expression in a sample was calculated following normalization of β-actin expression level.

HIV-1 = conditions: OD, converted to pg of protein
Description: Virus production (p24 release) was examined in an HIV-1-infected monocyte line. Cells were treated or not treated with HDAC-inhibitors and other compounds. P24 release expressed as optical density (“OD”) (FIG. 13), and then converted to pg of protein (FIG. 14). […] DMSO was vehicle for some of the compounds tested.

P3HR1 cells [2] = assay type: cell-based, human; conditions: then GCV for up to 6 days
P3HR1 cells [3] = assay: Titration / toxicity of HDAC inhibitors alone on P3HR1 cells; assay type: cell-based, human
Description: as §3

P3HR1 cells [4] = assay type: cell-based, human
Description: as §2, with “throughout these assays.” for “in the study.”, “Cells” for “These cells”, “ml. […] Viable cell counts were measured and toxicity was expressed as percentage of cell growth compared to untreated cells. As shown in FIG. 2A and FIG. 2B, PCV was less toxic to the cells compared to GCV.” for “ml.”

EBV-TK = assay: Induction of EBV-TK in EBV-immortalized B-cells and patient-derived tumor cells; assay type: cell-based, Epstein-Barr virus; conditions: for expression of viral thymidine kinase and other viral protein kinases: EBV-infected lymphocytes
Description: In some embodiments, inducing agents include arginine butyrate and/or other histone deacetylase inhibitors. […] This expression of a viral gene can be used as a point for attack by anti-viral agents, allowing for treatment of latent infections.
Treatment of patients with viral-associated tumors such as EBV with inducing agents such as arginine butyrate, to induce the expression of EBV-TK/EBV-PK, and GCV, to eliminate EBV-TK/EBV-PK expressing tumor cells, is an effective, non-toxic therapy. […] Without wishing to be bound by theory, it is believed that just the presence of the EBV genome in latent form would make the tumor susceptible to this combination protocol.

Molecule: Cc1[nH]c2ccccc2c1CCNCc1ccc(/C=C/C(=O)NO)cc1 [LBH589]
- concentration with activity in combination with GCV comparable to NaB at 1.0 mM (P3HR1 cells [1]): 50 nM
- effective concentration (P3HR1 cells [1]): 50 to 100 nM
- EBV-TK expression in the tumor cells (EBV TK): strongly induced
- TK expression level (EBV TK; compared to optimum concentration of NaB (2.5 mM)): quite high
- virus production (p24 release) (HIV-1): active

Molecule: Nc1ccccc1NC(=O)c1ccc(CNC(=O)OCc2cccnc2)cc1 [MS-275, 3-pyridinylmethyl [[4-[[(2-aminophenyl)amino]carbonyl]phenyl]methyl] carbamate]
- concentration with activity in combination with GCV comparable to NaB at 1.0 mM (P3HR1 cells [1]): 500 nM
- effective concentration (P3HR1 cells [1]): 200 to 500 nM
- EBV-TK expression in the tumor cells (EBV TK): strongly induced
- concentration strongly inducing TK expression (EBV TK): ≥ 500 nM
- time post treatment at which TK expression was induced (EBV TK): 6 h
- exposure sensitizing cells to GCV-mediated effects as efficiently as 72 hr continuous treatment (P3HR1 cells [2]): 24 h

Molecule: CCCC(=O)[O-].[Na+] [NaB, sodium butyrate]
- reduction of growth compared to cells treated with NaB or GCV alone (P3HR1 cells [1]; NaB+GCV): up to 50%
- optimal concentration (P3HR1 cells [1]; combination with GCV): 1.0 mM
- cell growth, HDAC inhibitor alone (P3HR1 cells [3]; NaB at concentration higher than 1.0 mM): reduces cell growth to a significant degree

Molecule: Nc1nc2c(ncn2CCC(CO)CO)c(=O)[nH]1 [PCV, penciclovir]
- toxicity (percentage of cell growth compared to untreated cells) (P3HR1 cells [4]): less toxic
- inhibition of cell growth at higher concentrations (P3HR1 cells [4]; PCV at higher concentrations, combination with Na-butyrate): did not change significantly

Molecule: O=C(/C=C/c1cccc(S(=O)(=O)Nc2ccccc2)c1)NO [PXD101]
- TK expression (EBV TK): high level

Molecule: CCC(Nc1ncnc2ccccc12)C(=O)O (stereo not drawn) [RB3]
- virus production (p24 release) (HIV-1): levels similar to the control of vehicle alone

Molecule: O=C(CCCCCCC(=O)Nc1ccccc1)NO [SAHA, suberoyl anilide hydroxamic acid]
- TK expression level (EBV TK; compared with efficient concentrations of butyrate (1.0 mM)): higher level

Molecule: CCC(C)(C)C(=O)O [ST20, 2,2-dimethyl butyrate]
- virus production (p24 release) (HIV-1): levels similar to the control of vehicle alone

Molecule: O=C(CCCCCN1C(=O)c2cccc3cccc(c23)C1=O)NO [Scriptaid]
- effect with GCV in reducing cell growth (P3HR1 cells [1]; especially at 500 nM and 1 μM): strong synergistic effect

Molecule: CCCC(CCC)C(=O)O [VA, valproic acid]
- activity in combination with GCV on cell growth / cell killing (P3HR1 cells [1]): very similar activity
- efficiency in inducing TK expression (EBV TK; compared with NaB): less efficient than NaB

Molecule: CCC(=O)CCCCC[C@@H]1NC(=O)[C@H]2CCCCN2C(=O)[C@H]([C@@H](C)CC)NC(=O)[C@H](Cc2cn(OC)c3ccccc23)NC1=O [apicidin]
- reduction of cell growth over cells treated with apicidin alone (P3HR1 cells [1]; 100 nM and 200 nM, with GCV): 40-50%
- toxicity to the cells (P3HR1 cells [3]; 500 nM): very toxic
- concentration quite toxic to the cells (P3HR1 cells [3]; apicidin alone): higher than 200 nM
- virus production (p24 release) (HIV-1): active

Molecule: CC(C)C(N)=O [isobutyramide]
- expression of viral thymidine kinase and other viral protein kinases (EBV-TK): enhance expression

Molecule: CCCCCCCC(=O)SCC/C=C/[C@@H]1CC(=O)NCc2nc(cs2)C2=N[C@@](C)(CS2)C(=O)N[C@@H](C(C)C)C(=O)O1 [largazole]
- virus production (p24 release) (HIV-1): active

Molecule: CCCCCCCCCCCCCC(=O)O[C@@H]1[C@@H](C)[C@@]2(O)[C@@H](C=C(CO)C[C@]3(O)C(=O)C(C)=C[C@@H]23)[C@@H]2C(C)(C)[C@]12OC(C)=O [phorbol myristate acetate]
- virus production (p24 release) (HIV-1): active

Molecule: CC(C=CC(=O)NO)=CC(C)C(=O)c1ccc(N(C)C)cc1 (stereo not drawn) [trichostatin A, 7-[4-(dimethylamino)phenyl]-N-hydroxy-4,6-dimethyl-7-oxohepta-2,4-dienamide]
- virus production (p24 release) (HIV-1): active

Molecule: Oxamflatin
- activity in combination with GCV on cell growth / cell killing (P3HR1 cells [1]): synergistic activity
- activity level (growth suppression) with GCV (P3HR1 cells [1]; at 200 nM, compared with 1.0 mM NaB): more than what typically seen with 1.0 mM NaB

Molecule: arginine butyrate
- EBV-TK activity (EBV-TK; EBV-immortalized B-cells and patient-derived tumor cells): induces EBV-TK activity
- expression of viral thymidine kinase and other viral protein kinases (EBV-TK): enhance expression
- virus production (p24 release) (HIV-1): active
